Source: article PMC12024234, “Antioxidant, Anti-Inflammatory, and Oral Bioavailability of Novel Sulfonamide Derivatives of Gallic Acid” (Antioxidants, 2025)
Where “and” joins values, the source holds several entries; their conditions need not be identical. Identical values can stand only once.

Tests used:
[1] = Ferric reducing antioxidant power (FRAP) assay; settings: compared to GA
Procedure: The FRAP assay was conducted following an adapted procedure based on the method described by Benzie (1996). The FRAP reagent was prepared fresh and warmed to 25 °C before use. The reagent was made by combining 2.5 mL of a 10 mM TPTZ solution in 40 mM hydrochloric acid, 2.5 mL of a 20 mM FeCl3·6H2O solution, and 25 mL of a 0.3 M sodium acetate buffer adjusted to pH 3.6. For the assay, 100 μL of each sample was mixed with 3 mL of the freshly prepared FRAP reagent and incubated for 4 min. After incubation, the absorbance was recorded at 593 nm using a UV-VIS spectrophotometer, with methanol serving as the blank. A standard calibration curve was generated using ascorbic acid solutions at concentrations of 100, 200, 400, 800, and 1000 μM (R^2 = 0.998). The FRAP values were calculated as μM of ascorbic acid equivalents based on the standard curve. The results presented are the mean of three independent experiments.

[2] = system: intracellular reactive oxygen species (ROS) levels in HIEC-6 cells; test: DCFDA / H2DCFDA ROS assay in HIEC-6; format: cell-based, Human; settings: HIEC-6, 0.2–50 µM
Procedure: The antioxidant DCFDA assay was conducted in HIEC-6 according to the protocol provided by the manufacturer Abcam (ab11385) and as mentioned by. Cells were seeded at a cell density of 2.5 × 10^4 cells/well in a clear bottom black 96-well microplate and allowed to adhere overnight at 37 °C in a CO2 incubator. Cells were washed and incubated in 100 µL of the diluted staining DCFDA solution, prepared by diluting 20 mM DCFDA in PBS, for 45 min at 37 °C in the dark Then, the DCFDA solution was removed and GA, 3,4,5-THBS, or 3,4,5-TMBS was added to the cells at different concentrations, in addition to doxorubicin, used as a positive control. Unstained cells were designated as blank. Fluorescence was recorded at Ex/Em = 485/535 nm.
The antioxidant activity of GA, 3,4,5-THBS, and 3,4,5-TMBS was assessed in HIEC-6 cells using the fluorescent probe 2′,7′-dichlorodihydrofluorescein diacetate (H2DCFDA). This assay quantifies the oxidation of H2DCFDA to 2′,7′-dichlorofluorescein (DCF), which serves as a marker for intracellular reactive oxygen species (ROS) levels. Cells were exposed to compound concentrations ranging from 0.2 to 50 µM, and the resulting fluorescence intensities were compared to a control group treated with H2DCFDA alone.

[3] = Oral bioavailability / pharmacokinetics in rats; format: in vivo, Sprague Dawley rats; settings: for Cmax / AUC(0-inf) / AUC(0-t) / CL/F / half-life / MRT inf / Tmax: male, Sprague Dawley; for Cmax / AUC(0-inf) / AUC(0-t) / CL/F / half-life / MRT inf / Tmax / Vz: rat serum; for Cmax: 100 mg/kg (table: 100 mg dose); for AUC(0-inf) / AUC(0-t) / CL/F / half-life / MRT inf / Tmax / Vz / Distribution volume at the terminal phase (Vz) relative to GA: 100 mg/kg; for MRT inf: n = 6, read-out: MRT0–∞; for Tmax / Distribution volume at the terminal phase (Vz) relative to GA: rat; for Tmax: serum, po
Procedure: Male Sprague Dawley rats, aged 7–9 weeks and weighing 220 ± 20 g on average, were used for bioavailability studies. The animals were housed in the Laboratory Animal Research Unit at the University of Petra Pharmaceutical Center under controlled conditions: a temperature of 23 ± 2 °C, humidity of 55–65%, and a 12 h light/dark cycle. Prior to the experiments, the rats underwent a 10-day acclimatization period with free access to standard food and water. All procedures complied with the University of Petra’s animal use guidelines, which adhere to the standards of the Federation of European Laboratory Animal Sciences Association (FELASA). The rats were divided into three groups (n = 6 per group) and administered suspensions of GA, 3,4,5-TMBS, or 3,4,5-THBS prepared in 5% carboxymethylcellulose. Each compound was administered orally at a dose of 100 mg/kg, based on previous studies. Blood samples were collected from the retro-orbital plexus at 0.5, 1, 2, 3, 4, 6, 10, and 24 h post-administration. The samples were centrifuged at 5000 rpm for 10 min, and the serum was mixed with acetonitrile in a 1:3 ratio. After a second centrifugation at 5000 rpm for 15 min, the supernatant was collected for high-performance liquid chromatography (HPLC) analysis. HPLC analysis was conducted using a Shimadzu Class VP series system equipped with an LC-10AT VP pump, an SIL-10AD VP autosampler, and an SCL-10AVP system (Shimadzu, Kyoto, Japan). A C18 column (25 cm × 4.6 mm, 5 μm) was used, with a photodiode array detector set to a wavelength range of 200–400 nm. The mobile phase for TMBS and THBS consisted of a 50:50 (v/v) mixture of deionized water and acetonitrile containing 0.1% trifluoroacetic acid, flowing at 1 mL/min. For GA, the mobile phase was a 70:30 mixture of methanol and a water/sulfuric acid solution (100:2), also at a flow rate of 1 mL/min. The retention times for THBS and TMBS were 2.39 and 3.47 min, respectively, while GA eluted at 2.4 min, all detected at 254 nm. Results were analyzed using Lab Solution Software LC (version 5.3) and represent the average of three measurements.

[4] = DPPH assay on supernatant after CYP2D6 metabolism
Procedure: The antioxidant properties of the compounds under study were examined using the 2,2-Diphenyl-1-picrylhydrazyl (DPPH) assay, following a well-established protocol. A DPPH solution was prepared at a concentration of 0.1 mM in methanol. […] To ensure proper reaction, the mixtures were kept in the dark and incubated at room temperature for 30 min. After incubation, the absorbance of each sample was measured at 517 nm using a UV-VIS spectrophotometer. Gallic acid was used as the reference standard, and methanol served as the blank control.
To further assess the scavenging activity of 3,4,5-TMBS metabolites, an antioxidant assay was conducted after 3 and 4 h following the metabolism. After both 3 h and 4 h reaction periods, the enzyme was separated, and the resulting supernatant was utilized for the DPPH assay. Findings regarding the antioxidant activity of 3,4,5-TMBS, post-metabolism, at these time points, in comparison to GA and 3,4,5-THBS at the same concentration, are illustrated in Figure 9.

CYP2D6 = target: T1, CYP2D6 (Homo sapiens, UniProt P10635); test: Metabolism by cytochrome P450 2D6 (CypExpress), HPLC; format: in vitro ADME
T1 construct: purchased Sigma Aldrich C4982
T1 sequence (P10635 whole entry): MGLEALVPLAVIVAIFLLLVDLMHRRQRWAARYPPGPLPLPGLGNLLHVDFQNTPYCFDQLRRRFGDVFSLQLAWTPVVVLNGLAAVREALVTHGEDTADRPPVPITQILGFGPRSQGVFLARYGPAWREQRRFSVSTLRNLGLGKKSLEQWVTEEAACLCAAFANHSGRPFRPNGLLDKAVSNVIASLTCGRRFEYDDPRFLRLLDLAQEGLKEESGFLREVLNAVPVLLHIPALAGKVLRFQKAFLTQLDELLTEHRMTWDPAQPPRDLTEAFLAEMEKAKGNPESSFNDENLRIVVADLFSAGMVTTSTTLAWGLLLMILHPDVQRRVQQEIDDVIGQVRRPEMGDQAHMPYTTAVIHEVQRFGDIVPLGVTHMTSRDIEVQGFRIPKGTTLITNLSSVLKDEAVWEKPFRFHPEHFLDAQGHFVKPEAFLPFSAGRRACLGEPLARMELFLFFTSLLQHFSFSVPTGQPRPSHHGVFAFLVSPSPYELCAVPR

SMILES	FRAP value (antioxidant capacity) [1]	ROS levels (fluorescence intensity) relative to control [2]	Cmax ([3]; n = 6) [ng/mL]	AUC(0-inf) ([3]; n = 6) [µg·h/mL]	AUC(0-t) ([3]; n = 6) [ng·h/mL]	CL/F ([3]; n = 6) [mL/min/kg]	half-life ([3]; n = 6) [min]	MRT inf [3] [h]	Tmax [3] [h]	Tmax ([3]; n = 6) [h]	Vz ([3]; n = 6)	Distribution volume at the terminal phase (Vz) relative to GA [3]	DPPH scavenging activity after CYP2D6 metabolism ([4]; 1000 µM, after four hours) [%]	DPPH scavenging activity after CYP2D6 metabolism ([4]; 1000 µM, after three hours) [%]	DPPH scavenging activity after CYP2D6 metabolism ([4]; 2000 µM, after three and four hours)	Metabolism by CYP2D6 (concentration) (CYP2D6; 1000 µM, 1 h) [µM]	Metabolism by CYP2D6 (concentration) (CYP2D6; 1000 µM, 3 h) [µM]	Metabolism by CYP2D6 (concentration) (CYP2D6; 1500 µM, 1 h) [µM]	Metabolism by CYP2D6 (concentration) (CYP2D6; 1500 µM, 3 h) [µM]	Percentage metabolized by CYP2D6 (CYP2D6; 1500 µM, one-hour time point)
NS(=O)(=O)c1cc(O)c(O)c(O)c1 [3,4,5-THBS, 3,4,5-trihydroxybenzenesulfonamide]	lower antioxidant activity compared to GA	potent antioxidant activity	9560 ± 1900	24.2 ± 7.37	24200 ± 270	73.2	126 ± 78	2.69 ± 0.36	2	2 ± 0.1	7.39 ± 2.16 (mg)/(μg/mL)	approximately ten-fold lower than that of GA								
COc1cc(S(N)(=O)=O)cc(OC)c1OC [3,4,5-TMBS, 3,4,5-trimethoxybenzenesulfonamide]	lower antioxidant activity compared to GA	potent antioxidant activity	25800 ± 6030	386 ± 43.8	173000 ± 49300	6.17	430 ± 97.2	11.9 ± 0.61	2.87	2.88 ± 1.31	3.20 ± 0.55 (mg)/(μg/mL)	approximately ten-fold lower than that of GA	45	35	up to 61%	754 ± 35.5	860.62 ± 0.71	984 ± 161	1241 ± 12.2	65% and 65.5%
